Patent publication US12606798B2, “Methods and materials for hematoendothelial differentiation of human pluripotent stem cells under defined conditions” (WISCONSIN ALUMNI RESEARCH FOUNDATION, priority 2013, dated 2026)

Experiments:
Type in all cases: cell-based, human
[1] = system: CD43+ cells collected from H1 hESCs; experiment: T-cell differentiation of day 9 cultures on OP9-DLL4; conditions: CD43+ cells from day 9 cultures on the matrix, OP9-DLL4 coculture
Procedure: An OP9 cell line (OP9-DLL4) constitutively expressing human delta-like ligand 4 (DLL4) was established by our lab using lentivirus and was maintained similarly to OP9. After human pluripotent stem cells were differentiated for 9 days, the floating cells were collected, strained through a 70 μm cell strainer (BD Biosciences) and washed. Then, they were resuspended in T-cell differentiation media consisting of α-MEM (Gibco) supplemented with 20% FBS (Hyclone) supplemented with IL7 (5 ng/ml), Flt3L (5 ng/ml) and SCF ([…]). Then, they were plated on an OP9-DLL4 and cultured at 37° C. and 5% CO2. After 4 days, the cells were harvested using collagenase IV (Gibco) solution (1 mg/ml in DMEM/F12, Gibco) and 1× TrypLE (Invitrogen), and passaged onto a fresh layer of OP9-DLL4. After 3 days, the cells are passaged again. Subsequent passages are conducted every 7 days up to 4 weeks, after which the floating cells are collected for flow analysis and genomic DNA extraction for TCR rearrangement assay.

hESCs [2] = experiment: Mesenchymo- (MB) and hemangioblast (HB) colony assay; conditions: day 2 and day 3 cultures; TenC compared with ColIV
Procedure: MB and HB were detected using serum-free CFC medium supplemented with FGF2 assay as previously described^11. Day 2 or 3 cultures were dissociated and prepared in a single-cell suspension using 1× TrypLE (Life Technologies) and 5,000 cells of the total culture were plated into the CFC media. MB and HB colonies were scored 12 days after plating the single-cell suspension.

hESCs [3] = experiment: Hematopoietic CFC assay; conditions: day 8, TenC compared with ColIV
Procedure: Hematopoietic CFC were detected using serum-containing H4436 Methocult™ supplemented with human recombinant SCF, G-CSF, GM-CSF, IL-3, IL-6, and EPO (Stem Cell Technologies). Hematopoietic potential of AHPs was evaluated using serum-free SF H4236 methocult with added FGF2 (20 ng/ml), SCF (20 ng/mL), IL3 (10 ng/mL), IL6 (10 ng/mL), and EPO (2 U/mL) (Stem Cell Technologies) as previously described^6. 1000-10000 differentiated cells were plated into the CFC medium and the colonies were scored after 14 days of culture.

hESCs [4] = experiment: hPSC hematoendothelial differentiation on ColIV vs TenC in chemically defined conditions, flow cytometry
Procedure: (§1) Human pluripotent stem cells were detached from vitronectin or matrigel when they reached 80% confluency using 1× TrypLE (Life Technologies) and plated at an optimized density ranging from 5000 cells/cm^2 to 15,000 cells/cm^2 depending on the cell line onto 6-well plates coated with 0.5 μg/cm^2 of ColIV (Sigma-Aldrich) or 0.5 μg/cm^2 Tenascin-C (Millipore) in E8 media supplemented with 10 μM Rho Kinase inhibitor (Tocris Y-27632). After 24 hours (day 0), the media was changed to IF9S media supplemented with 50 ng/ml BMP4 (Peprotech), 15 ng/ml Activin A (Peprotech), 50 ng/ml FGF2 (Miltenyi Biotech), 2 mM LiCl (Sigma), and on occasion, 1 μM Rho Kinase inhibitor to increase cell viability. On day 2, the media was changed to IF9S media supplemented with 50 ng/ml FGF2 and 50 ng/ml VEGF, and 10 μM SB-431542 (Tocris) where mentioned. On day 4, the media was changed to IF9S media supplemented with 50 ng/ml FGF2, VEGF, TPO, SCF, IL-6, and 10 ng/ml IL-3. On day 6, additional IF9S media supplemented with the same 6 factors were added to the cultures without aspirating the old media (Table 3 Table 3). IF9S (IMDM/F12 with 9 supplements) was made in-house with the following: 50% IMDM 50% F12 (Life Technologies) supplemented with 64 mg/L L-ascorbic Acid 2-Phosphate Mg2+ salt (Sigma-Aldrich), 40 ul/L monothioglycerol (Sigma-Aldrich), 8.4 μg/L additional sodium selenite (Sigma-Aldrich), 10 mg/L polyvinyl alcohol (Sigma-Alderich), 1× glutamax (Life Technologies), 1× non-essential amino acids (Life Technologies), 0.1× chemically defined lipid concentrate (Life Technologies), 10.6 mg/L Holo-Transferrin (Sigma-Aldrich), and 20 mg/L Insulin (Sigma-Aldrich) (Table 2). Differentiation was conducted in hypoxic condition from day 0 to day 5, and transferred to normoxic condition from day 6 to day 9 (FIG. 1). The 1× TrypLE was used to dissociate and collect cells for analysis.
Flow Cytometry was conducted using the using a FACSCalibur flow cytometer and following antibodies: CD31-FITC (clone WM59), CD34-FITC (8G12), CD41a-FITC/APC (clone HIPS), CD43-FITC/PE/APC (clone 1G10), CD45-APC (clone HI30), CD73-FITC/PE (clone AD2), CD144-FITC/PE/AlexaFluor647 (clone 55-7H1), CD235a-FITC/PE/APC (clone GA-R2), KDR-PE/AlexaFluor647 (clone 89106), PDGFRα-PE (clone aR1) (BD Biosciences), TRA-1-85-FITC/PE (clone TRA-1-85), and APLNR-APC (clone 72133) (R&D Systems). Sorting was conducted on a FACS Aria, as described previously 46. The purity of isolated populations was 92-95%.

H1 hESCs = experiment: Hematopoietic differentiation of H1 hESCs in chemically defined conditions with TGFβ inhibitor, flow cytometry
Procedure: as §1, with “analysis. Flow Cytometry was conducted using the using a FACSCalibur flow cytometer and following antibodies: CD31-FITC (clone WM59), CD34-FITC (8G12), CD41a-FITC/APC (clone HIPS), CD43-FITC/PE/APC (clone 1G10), CD45-APC (clone HI30), CD73-FITC/PE (clone AD2), CD144-FITC/PE/AlexaFluor647 (clone 55-7H1), CD235a-FITC/PE/APC (clone GA-R2), KDR-PE/AlexaFluor647 (clone 89106), PDGFRα-PE (clone aR1) (BD Biosciences), TRA-1-85-FITC/PE (clone TRA-1-85), and APLNR-APC (clone 72133) (R&D Systems). Sorting was conducted on a FACS Aria, as described previously 46. The purity of isolated populations was 92-95%. Recent studies have shown that adding TGF-β inhibitors after mesoderm specification but before endothelial development increases definitive hematopoietic differentiation.” for “analysis.”

Molecule | capacity of CD43+ cells to generate CD5+CD7+ lymphoid progenitors [1] | progression toward CD4+CD8+ T lymphoid cells ([1]; week 3) | MB and HB colonies (hESCs [2]) | GEMNI-CFC potential of cultures (hESCs [3]) | CFC potential of cultures (hESCs [3]; 3 experiments, p<0.01) | hematopoietic differentiation potential of CB hiPSCs (hESCs [4]; cord blood mononuclear cell-derived hiPSCs) | percentage of KDRhiAPLNR+PDGFRalphalo/− HVMPs cells (hESCs [4]; day 4, TenC compared with ColIV) | population of total CD144+ cells (HEPs, non-HEPs, AHPs) (hESCs [4]; day 5, compared to cultures differentiated on ColIV) | CD43+ hematopoietic progenitors expansion (hESCs [4]; day 8, TenC compared to ColIV) | APLNR+PDGFRalpha+ cells (hESCs [4]; days 2 and 3, TenC compared with ColIV) | development of PDGFRalpha-positive mesoderm cells (H1 hESCs; 10 μM added from day 2 to day 4, read on day 3) | CD31+ differentiation (H1 hESCs; 10 μM added from day 2 to day 4, read on day 4) | CD43+ population (H1 hESCs; 10 μM added from day 2 to day 4, read on day 9) | CD43+ hematopoietic progenitors (H1 hESCs; added from day 2 to day 4 only, day 8) | endothelial progenitors (H1 hESCs; added from day 2 to day 4 only, days 4 and 5)
TenC: human Tenascin C extracellular matrix protein (GenBank CAA55309.1; Millipore CC065) used as culture substrate | had a capacity | observed only from CD43^+ cells generated on TenC | significantly higher | significantly greater | higher CFC potential | restored hematopoietic differentiation potential of CB hiPSCs to the level seen with hESCs and FB hiPSCs | consistently higher | larger population | expanded significantly more | significantly higher | – | – | – | – | –
NC(=O)c1ccc(-c2nc(-c3ccc4c(c3)OCO4)c(-c3ccccn3)[nH]2)cc1 [SB-431542] | – | – | – | – | – | – | – | – | – | – | significantly decreases | increases | continues to increase | significant increase | increases
